Activity calls are given as the source filed them. The calls are words filed in the database; no cut-off is given here.
Experiments:
[1] = system: MCF7; assay: Antiproliferative activity against human MCF7 cells with siRNA mediated CARM1 knockdown assessed as reduction in cell growth at 5 uM incubated for 7 days by celltiter 96 aqueous one solution cell proliferation assay; assay type: functional, cell-based; conditions: time 7.0 day
[2] = system: MCF7; assay: Induction of cell cycle arrest in human MCF7 cells at 2.5 to 10 uM incubated overnight by propidium iodide staining based flow cytometry; assay type: functional; conditions: dose 2.5-10 µM
[3] = Toxicity in BALB/C mouse xenografted with human MCF7 cells assessed as change in body weight at 50 mg/kg,ip administrated every other day for 29 days; assay type: organism-based; conditions: in vivo, 696 h, time 29 day
[4] = Toxicity in BALB/C mouse xenografted with human MCF7 cells assessed as change in heart morphology at 25 mg/kg,ip administrated every other day for 29 days; assay type: organism-based; conditions: in vivo, 696 h, time 29 day
[5] = Toxicity in BALB/C mouse xenografted with human MCF7 cells assessed as change in liver morphology at 50 mg/kg,ip administrated every other day for 29 days; assay type: organism-based; conditions: in vivo, 696 h, time 29 day
[6] = Toxicity in BALB/C mouse xenografted with human MCF7 cells assessed as change in lung morphology at 25 mg/kg,ip administrated every other day for 29 days; assay type: organism-based; conditions: in vivo, 696 h, time 29 day
[7] = system: MCF7; assay: Antitumor activity against human MCF7 cells xenografted in BALB/C mouse assessed as downregulation of C-Myc gene expression at 25 mg/kg,ip administrated every other day for 29 days by RT-qPCR analysis; assay type: functional, organism-based; conditions: time 29.0 day
[8] = system: MCF7; assay: Antitumor activity against human MCF7 cells xenografted in BALB/C mouse assessed as downregulation of C-Myc gene expression at 50 mg/kg,ip administrated every other day for 29 days by RT-qPCR analysis; assay type: functional, organism-based; conditions: time 29.0 day
[9] = system: MCF7; assay: Antitumor activity against human MCF7 cells xenografted in BALB/C mouse assessed as upregulation of CCL5 gene expression at 50 mg/kg,ip administrated every other day for 29 days by RT-qPCR analysis; assay type: functional, organism-based; conditions: time 29.0 day
[10] = system: MCF7; assay: Antitumor activity against human MCF7 cells xenografted in BALB/C mouse assessed as upregulation of IFIT1 gene expression at 50 mg/kg,ip administrated every other day for 29 days by RT-qPCR analysis; assay type: functional, organism-based; conditions: time 29.0 day
[11] = system: MDA-MB-231; assay: Antiproliferative activity against human MDA-MB-231 cells assessed as reduction in cell growth incubated for 7 days by celltiter 96 aqueous one solution cell proliferation assay; conditions: MDA-MB-231, 168 h
[12] = system: HCC1937; assay: Antiproliferative activity against human HCC1937 cells assessed as reduction in cell growth incubated for 7 days by celltiter 96 aqueous one solution cell proliferation assay; conditions: HCC1937, 168 h
[13] = system: MDA-MB-231; assay: Antitumor activity against human MDA-MB-231 cells xenografted in BALB/C mouse assessed as reduction of tumor size at 25 mg/kg,ip administrated daily for 11 days; assay type: functional, organism-based; conditions: time 11.0 day
[14] = system: MDA-MB-231; assay: Antitumor activity against human MDA-MB-231 cells xenografted in BALB/C mouse assessed as reduction of tumor size at 50 mg/kg,ip administrated daily for 11 days; assay type: functional, organism-based; conditions: time 11.0 day
[15] = Toxicity in BALB/C mouse xenografted with human MDA-MB-231 cells assessed as change in spleen morphology at 25 mg/kg,ip administrated daily for 11 days; assay type: organism-based; conditions: in vivo, 264 h, time 11 day
[16] = system: 4T1; assay: Antitumor activity against mouse 4T1 cells implanted in BALB/C mouse assessed as inhibition of tumor weight at 25 mg/kg,ip administrated daily for 14 days; assay type: functional, organism-based; conditions: time 14.0 day
[17] = Toxicity in BALB/C mouse implanted with mouse 4T1 cells assessed as change in spleen morphology at 25 mg/kg,ip administrated daily for 14 days; assay type: organism-based; conditions: in vivo, 336 h, time 14 day
[18] = Toxicity in BALB/C mouse implanted with mouse 4T1 cells assessed as change in lung morphology at 50 mg/kg,ip administrated daily for 14 days; assay type: organism-based; conditions: in vivo, 336 h, time 14 day
[19] = system: 4T1; assay: Antitumor activity against mouse 4T1 cells implanted in BALB/C mouse assessed as downregulation of FOXC1 gene expression at 25 mg/kg,ip administrated daily for 14 days by RT-qPCR analysis; assay type: functional, organism-based; conditions: time 14.0 day
[20] = system: 4T1; assay: Antitumor activity against mouse 4T1 cells implanted in BALB/C mouse assessed as downregulation of FOXC1 gene expression at 50 mg/kg,ip administrated daily for 14 days by RT-qPCR analysis; assay type: functional, organism-based; conditions: time 14.0 day
[21] = system: 4T1; assay: Antitumor activity against mouse 4T1 cells implanted in BALB/C mouse assessed as upregulation of CCL5 gene expression at 25 mg/kg,ip administrated daily for 14 days by RT-qPCR analysis; assay type: functional, organism-based; conditions: time 14.0 day
[22] = system: 4T1; assay: Antitumor activity against mouse 4T1 cells implanted in BALB/C mouse assessed as upregulation of IFIT1 gene expression at 25 mg/kg,ip administrated daily for 14 days by RT-qPCR analysis; assay type: functional, organism-based; conditions: time 14.0 day
[23] = system: 4T1; assay: Antitumor activity against mouse 4T1 cells implanted in BALB/C mouse assessed as upregulation of DDX58 gene expression at 50 mg/kg,ip administrated daily for 14 days by RT-qPCR analysis; assay type: functional, organism-based; conditions: time 14.0 day
[24] = system: MCF7; assay: Synergistic antiproliferative activity against human MCF7 cells assessed as downregulation of GREB1 gene expression at 2.5 uM incubated for 6 hrs in presence of tamoxifen by RT-qPCR analysis; assay type: functional, cell-based
[25] = system: MCF7; assay: Synergistic antitumor activity against human MCF7 cells xenografted in BALB/C mouse assessed as downregulation of CCND1 gene expression at 25 mg/kg,ip administrated every other day for 15 days in presence of 5 mg/kg tamoxifen oral administration by RT-qPCR analysis; assay type: functional, organism-based; conditions: time 15.0 day
[26] = system: MCF7; assay: Potentiation of etoposide induced antiproliferative activity against human MCF7 cells assessed as inhibition of cell growth at 2.5 uM incubated for 7 days in presence of etoposide by celltiter 96 aqueous one solution cell proliferation assay; assay type: functional, cell-based; conditions: time 7.0 day
[27] = system: MCF7; assay: Potentiation of etoposide induced antiproliferative activity against human MCF7 cells assessed as upregulation of ISG15 gene expression at 2.5 uM in presence of etoposide by RT-qPCR analysis; assay type: functional, cell-based
[28] = system: 4T1; assay: Potentiation of etoposide induced antiproliferative activity against mouse 4T1 cells assessed as inhibition of cell growth at 2.5 uM incubated for 7 days in presence of etoposide by celltiter 96 aqueous one solution cell proliferation assay; assay type: functional, cell-based; conditions: time 7.0 day
[29] = Toxicity in BALB/C mouse implanted with mouse 4T1 cells assessed as change in body weight at 25 mg/kg,ip administrated daily for 12 days in presence of 8 mg/kg etoposide administration; assay type: organism-based; conditions: in vivo, 288 h, time 12 day
[30] = system: 4T1; assay: Potentiation of etoposide induced antitumor activity against mouse 4T1 cells implanted in BALB/C mouse assessed as upregulation of ISG15 gene expression at 25 mg/kg,ip administrated daily for 12 days in presence of 8 mg/kg etoposide administration by RT-qPCR analysis; assay type: functional, organism-based; conditions: time 12.0 day
[31] = system: 4T1; assay: Potentiation of etoposide induced antitumor activity against mouse 4T1 cells implanted in BALB/C mouse assessed as upregulation of CD8A expression at 25 mg/kg,ip administrated daily for 12 days in presence of 8 mg/kg etoposide administration by immunohistochemical staining based analysis; assay type: functional, organism-based; conditions: time 12.0 day
[32] = system: 4T1; assay: Potentiation of etoposide induced antitumor activity against mouse 4T1 cells implanted in BALB/C mouse assessed as increase in infiltration of CD8 positive T cells at 25 mg/kg,ip administrated daily for 12 days in presence of 8 mg/kg etoposide administration by immunohistochemical staining based analysis; assay type: functional, organism-based; conditions: time 12.0 day

Cc1ccc(-c2nc(N3CCN(CCN(C)C)CC3)ncc2-c2ccoc2)cc1.Cl.Cl
Activity [1]: inactive | Activity [2]: Active | Activity [3]: Non-Toxic | Activity [4]: Non-Toxic | Activity [5]: Non-Toxic | Activity [6]: Non-Toxic | Activity [7]: Active | Activity [8]: Active | Activity [9]: Active | Activity [10]: Active | EC50 [11]: 3750 nM | EC50 [12]: 1970 nM | Activity [13]: Active | Activity [14]: Active | Activity [15]: Non-Toxic | Activity [16]: Active | Activity [17]: Non-Toxic | Activity [18]: Non-Toxic | Activity [19]: Active | Activity [20]: Active | Activity [21]: Active | Activity [22]: Active | Activity [23]: Active | Activity [24]: Active | Activity [25]: Active | Activity [26]: Active | Activity [27]: Active | Activity [28]: Active | Activity [29]: Non-Toxic | Activity [30]: Active | Activity [31]: Active | Activity [32]: Active

From ChEMBL document CHEMBL5512665, “A CARM1 Inhibitor Potently Suppresses Breast Cancer Both In Vitro and In Vivo” (J Med Chem, 2024)
